The structures appear in SMILES notation. Bounds are passed on as bounds.

These results are taken from patent US20250376469A1, “INDOLIZINE DERIVATIVES FOR TREATING TRPM3-MEDIATED DISORDERS” (Katholieke Universiteit Leuven, priority 2022, published 2025).

The assay deals with T1, mouse TRPM3α2 (mTRPM3) ion channel (Mus musculus, UniProt J9SQF3).
T1 construct: expressed in transfected cells; host or cells: flip-in HEK293
The assay is described as follows: TRPM3 ion channel driven Ca2+ uptake (Fluo-4 AM assay, pregnenolone sulfate stimulated). It counts as cell-based. The settings on record: TRPM3 overexpressing flip-in HEK293 cells, channel opened with pregnenolone sulfate (PS) 50 μM, 2.4 mM Ca2+. On the procedure:
In order to monitor the inhibition of the mouse TRPM3α2 (mTRPM3) ion channel by the compounds of the invention, a cellular system making use of an mTRPM3alpha2 or hTRPM3 overexpressing cell line (flip-in HEK293) was used. The TRPM3 channel was stimulated/opened with Pregnenolone sulfate (PS) (50 μM) which results in Ca^2+ influx.
For mTRPM3, the intracellular Ca^2+ was measured with a Calcium responsive dye, Fluor-4 AM ester (Invitrogen). Cells were cultured until a confluence of 80-90%, washed with Versene (Invitrogen) and detached from the surface by a short incubation with 0.05% Trypsin (Invitrogen). The trypsination process was stopped by the addition of complete cell culture medium (DMEM, glutamax, 10% FCS, NEAA, Pen-Strep). Cells were collected and resuspended in Krebs buffer without Calcium at RT.
Prior the cell seeding (±2000 cells/well into a black, 384 well plate (Greiner)) the diluted compound was added in the assay plate, together with the PS dissolved in Krebs buffer containing Calcium. […] Directly after cell addition the plates were read on an Envision fluorescence reader (Perkin Elmer) by an Excitation of 485 nm and emission at 535 nm.
Channel inhibition was calculated compared to a non-PS stimulated control versus a condition stimulated with PS (50 μM) with vehicle. The ability of a the compounds of the invention to inhibit this activity was determined as: Percentage inhibition=[1−((RFU determined for sample with test compound present−RFU determined for sample with positive control inhibitor) divided by (RFU determined in the presence of vehicle−RFU determined for sample with positive control inhibitor))]*100.
The activities of the Example compounds […] tested are depicted in the table below. The activity ranges A, B and C refer to IC50 values in the Fluo-4 AM assay as follows: […]

T1 sequence (J9SQF3 1-1709 isoform J9SQF3-12): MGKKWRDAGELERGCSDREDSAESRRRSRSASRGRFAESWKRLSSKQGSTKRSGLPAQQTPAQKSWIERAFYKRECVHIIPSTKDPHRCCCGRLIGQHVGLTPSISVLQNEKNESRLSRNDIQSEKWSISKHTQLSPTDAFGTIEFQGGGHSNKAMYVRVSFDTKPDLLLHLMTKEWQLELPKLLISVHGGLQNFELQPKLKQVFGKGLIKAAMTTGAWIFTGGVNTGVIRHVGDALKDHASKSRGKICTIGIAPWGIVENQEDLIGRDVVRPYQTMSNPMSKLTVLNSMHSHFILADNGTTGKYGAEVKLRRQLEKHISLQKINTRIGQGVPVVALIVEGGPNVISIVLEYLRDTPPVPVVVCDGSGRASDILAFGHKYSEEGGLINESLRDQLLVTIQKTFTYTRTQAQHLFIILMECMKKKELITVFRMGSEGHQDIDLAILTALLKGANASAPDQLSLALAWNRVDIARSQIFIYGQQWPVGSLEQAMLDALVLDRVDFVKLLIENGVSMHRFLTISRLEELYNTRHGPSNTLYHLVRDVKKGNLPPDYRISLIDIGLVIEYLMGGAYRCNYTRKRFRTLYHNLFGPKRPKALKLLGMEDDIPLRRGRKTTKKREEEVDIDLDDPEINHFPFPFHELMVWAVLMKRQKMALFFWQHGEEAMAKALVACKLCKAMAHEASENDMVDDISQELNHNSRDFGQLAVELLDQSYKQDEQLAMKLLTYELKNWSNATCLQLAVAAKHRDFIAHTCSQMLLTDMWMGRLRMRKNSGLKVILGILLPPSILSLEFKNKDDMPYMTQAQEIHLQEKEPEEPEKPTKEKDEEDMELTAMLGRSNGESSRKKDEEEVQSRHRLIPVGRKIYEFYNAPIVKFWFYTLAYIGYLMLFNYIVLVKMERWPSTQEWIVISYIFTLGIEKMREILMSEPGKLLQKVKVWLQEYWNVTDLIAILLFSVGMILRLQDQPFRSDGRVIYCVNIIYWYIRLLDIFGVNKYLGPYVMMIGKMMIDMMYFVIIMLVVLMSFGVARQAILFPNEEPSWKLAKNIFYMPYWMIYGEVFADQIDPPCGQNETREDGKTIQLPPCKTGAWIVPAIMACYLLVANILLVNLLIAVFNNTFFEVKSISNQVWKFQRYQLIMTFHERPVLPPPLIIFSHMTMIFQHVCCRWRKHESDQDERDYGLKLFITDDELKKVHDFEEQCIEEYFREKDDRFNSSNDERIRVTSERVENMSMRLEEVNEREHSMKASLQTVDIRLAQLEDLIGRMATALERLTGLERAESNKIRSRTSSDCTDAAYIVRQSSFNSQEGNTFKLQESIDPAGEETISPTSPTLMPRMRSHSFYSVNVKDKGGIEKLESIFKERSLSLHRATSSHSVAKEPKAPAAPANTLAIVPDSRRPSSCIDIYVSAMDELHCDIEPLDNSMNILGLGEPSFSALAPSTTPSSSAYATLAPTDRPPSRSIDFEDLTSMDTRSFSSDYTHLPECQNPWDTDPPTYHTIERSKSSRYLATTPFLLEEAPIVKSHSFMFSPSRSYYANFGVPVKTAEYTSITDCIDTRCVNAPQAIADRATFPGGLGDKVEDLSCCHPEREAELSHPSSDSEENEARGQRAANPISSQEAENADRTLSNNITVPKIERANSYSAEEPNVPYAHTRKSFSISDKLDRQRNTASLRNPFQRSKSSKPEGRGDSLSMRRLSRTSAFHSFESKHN

One may read the IC50 as the concentration needed to halve the response being measured. Low readings indicate greater potency in that assay, high ones weaker potency in that assay. In turn, `Cc1cc2ccc(OCc3ccccn3)cn2c1C(=O)NC1(CO)CCNC1=O` (single isomer, unassigned) [Cpd 016 - En2] displayed an IC50 of 1 to 20 µM. The same measure for `COc1ncccc1COc1ccc2cc(C)c(C(=O)NC3(CO)CCNC3=O)n2c1` (single isomer, unassigned) [Cpd 038 - En1]: under 1 µM. The same measure for `Cc1cc2ccc(OCc3ccccc3)cn2c1C(=O)NC(C)(CO)CC(F)F` (single isomer, unassigned) [Cpd 035 - En1]: under 1 µM. Under `Cc1ncc(COc2ccc3cc(C)c(C(=O)NC(C)(CO)C(N)=O)n3c2)s1` (single isomer, unassigned) [Cpd 029 - En1, 3-hydroxy-2-methyl-2-({2-methyl-6-[(2-methyl-1,3-thiazol-5-yl)methoxy]indolizin-3-yl}formamido)propanamide] stands under 1 µM. Turning to `Cc1cc2ccc(OCc3ccccn3)cn2c1C(=O)NC(CO)C(N)=O` (single isomer, unassigned) [Cpd 033 - En2], the IC50 was under 1 µM.

Consider `Cc1cc2ccc(OCc3ccccc3)cn2c1C(=O)NC(CO)C(N)=O` (single isomer, unassigned) [Cpd 034 - En2], for which the IC50 was under 1 µM. The same measure for `Cc1cc2ccc(OCc3ccccc3)cn2c1C(=O)NC(CO)C(N)=O` (single isomer, unassigned) [Cpd 034 - En1]: under 1 µM. The same measure for `Cc1cc2ccc(OCC3CC3)cn2c1C(=O)NC(C)(CO)CO` [Cpd 020, 6-(cyclopropylmethoxy)-N-(1,3-dihydroxy-2-methylpropan-2-yl)-2-methylindolizine-3-carboxamide]: under 1 µM; for `Cc1cc2ccc(OCc3c(F)cnn3C)cn2c1C(=O)NC(CO)CC(F)(F)F` (single isomer, unassigned) [Cpd 045 - En2]: over 20 µM; for `COCC(C)(CO)NC(=O)c1c(C)cc2ccc(OCc3ccccn3)cn12` (single isomer, unassigned) [Cpd 032 - En2]: under 1 µM.

`Cc1cc2ccc(OCc3cnccn3)cn2c1C(=O)NC(CO)CC(F)(F)F` (single isomer, unassigned) [Cpd 041 - En2] gave a half-inhibitory concentration (IC50) of over 20 µM. Under `Cc1cc2ccc(OCc3ccccn3)cn2c1C(=O)NC1(CO)CCNC1=O` (single isomer, unassigned) [Cpd 016 - En1] stands under 1 µM; under `Cc1cc2ccc(OCc3ccccc3F)cn2c1C(=O)N[C@@H](C)C(N)=O` [Cpd 002, (2S)-2-({6-[(2-fluorophenyl)methoxy]-2-methylindolizin-3-yl}formamido)propanamide], under 1 µM; under `Cc1cc2ccc(OCc3ccccc3F)cn2c1C(=O)N[C@@H](CO)C(N)=O` [Cpd 003, (2S)-2-({6-[(2-fluorophenyl)methoxy]-2-methylindolizin-3-yl}formamido)-3-hydroxypropanamide], under 1 µM. Under `Cc1cc2ccc(OCC3CC3)cn2c1C(=O)NC(C)(CO)C(N)=O` (single isomer, unassigned) [Cpd 019 - En2] stands 1 to 20 µM; under `Cc1cc2ccc(OCc3cccnc3)cn2c1C(=O)NC1(CO)CCNC1=O` (single isomer, unassigned) [Cpd 037 - En2], 1 to 20 µM; under `Cc1cc2ccc(OCc3ccccc3F)cn2c1C(=O)NC(C)(CO)C(N)=O` (single isomer, unassigned) [Cpd 005 - En2, 2-({6-[(2-fluorophenyl)methoxy]-2-methylindolizin-3-yl}formamido)-3-hydroxy-2-methylpropanamide], under 1 µM. Under `Cc1cc2ccc(OCc3ccccc3F)cn2c1C(=O)NC(C)(CO)CO` [Cpd 006, N-(1,3-dihydroxy-2-methylpropan-2-yl)-6-[(2-fluorophenyl)methoxy]-2-methylindolizine-3-carboxamide] stands under 1 µM; under `Cc1cc2ccc(OCC(F)F)cn2c1C(=O)NC1CNCCC1(F)F` (single isomer, unassigned) [Cpd 027 - En1], 1 to 20 µM; under `Cc1cc2ccc(OCc3ccccc3)cn2c1C(=O)NC(C)(CO)CC(F)F` (single isomer, unassigned) [Cpd 035 - En2], 1 to 20 µM. `Cc1cc2ccc(OCc3ccccn3)cn2c1C(=O)NC(C)(CO)CO` [Cpd 015, N-(1,3-dihydroxy-2-methylpropan-2-yl)-2-methyl-6-[(pyridin-2-yl)methoxy]indolizine-3-carboxamide] came in with an IC50 of under 1 µM. Under `Cc1cc2ccc(OCc3ccccn3)cn2c1C(=O)NC(C)(CO)C(N)=O` (single isomer, unassigned) [Cpd 014 - En2] stands 1 to 20 µM; under `COc1ncccc1COc1ccc2cc(C)c(C(=O)NC(CO)CC(F)(F)F)n2c1` (single isomer, unassigned) [Cpd 043 - En1], under 1 µM. The same measure for `Cc1cc2ccc(OCc3cccnc3C(F)(F)F)cn2c1C(=O)NC(CO)CC(F)(F)F` (single isomer, unassigned) [Cpd 044 - En1]: over 20 µM; for `Cc1cc2ccc(OCc3c(F)cnn3C)cn2c1C(=O)NC(CO)CC(F)(F)F` (single isomer, unassigned) [Cpd 045 - En1]: 1 to 20 µM; for `Cc1cc2ccc(OCc3cnccn3)cn2c1C(=O)NC1(CO)CCNC1=O` (single isomer, unassigned) [Cpd 046 - En2]: over 20 µM. Compound `Cc1cc2ccc(OCC(F)F)cn2c1C(=O)NC1CNCCC1(F)F` (single isomer, unassigned) [Cpd 027 - En2] registered a concentration for half-maximal inhibition (IC50) of over 20 µM. The same measure for `Cc1cc2ccc(OCc3cnccn3)cn2c1C(=O)NC(CO)CC(F)(F)F` (single isomer, unassigned) [Cpd 041 - En1]: 1 to 20 µM. Under `CC(=O)C(C)NC(=O)c1c(C)cc2ccc(OCC3CC3)cn12` (single isomer, unassigned) [Cpd 023 - En1] stands 1 to 20 µM; under `Cc1cc2ccc(OCc3ccccc3F)cn2c1C(=O)NC1(CO)CCNC1=O` (single isomer, unassigned) [Cpd 007 - En2], 1 to 20 µM. The same measure for `Cc1cc2ccc(OCc3ccccn3)cn2c1C(=O)NC(CO)C(N)=O` (single isomer, unassigned) [Cpd 033 - En1]: 1 to 20 µM.

For the compound `Cc1cc2ccc(OCc3cccnc3C(F)(F)F)cn2c1C(=O)NC1(CO)CCNC1=O` (single isomer, unassigned) [Cpd 039 - En2], the IC50 was 1 to 20 µM. Under `Cc1cc2ccc(OCc3ccccn3)cn2c1C(=O)NC1CNCCC1(F)F` (single isomer, unassigned) [Cpd 017 - En2, N-(4,4-difluoropiperidin-3-yl)-2-methyl-6-[(pyridin-2-yl)methoxy]indolizine-3-carboxamide] stands over 20 µM; under `Cc1cc2ccc(OCC3CC3)cn2c1C(=O)NC(C)(CO)C(N)=O` (single isomer, unassigned) [Cpd 019 - En1], under 1 µM; under `Cc1cc2ccc(OCc3ccccn3)cn2c1C(=O)NC(C)(CO)CC(F)F` (single isomer, unassigned) [Cpd 036 - En2], 1 to 20 µM.

`Cc1cc2ccc(OCc3ccccc3F)cn2c1C(=O)NC(C)(CO)C(N)=O` (single isomer, unassigned) [Cpd 005 - En1, 2-({6-[(2-fluorophenyl)methoxy]-2-methylindolizin-3-yl}formamido)-3-hydroxy-2-methylpropanamide]: the half-maximal inhibitory concentration (IC50) was under 1 µM.

In the case of `Cc1cc2ccc(OCC3CC3)cn2c1C(=O)NC1(CO)CCNC1=O` (single isomer, unassigned) [Cpd 021 - En1], the IC50 was under 1 µM. Consider `Cc1cc2ccc(OCc3cccnc3)cn2c1C(=O)NC(CO)CC(F)(F)F` (single isomer, unassigned) [Cpd 042 - En2], for which the half-maximal inhibitory concentration (IC50) lay in the range of 1 to 20 µM. Under `Cc1cc2ccc(OCc3ccccn3)cn2c1C(=O)NC(C)(CO)CC(F)F` (single isomer, unassigned) [Cpd 036 - En1] stands under 1 µM; under `Cc1ncc(COc2ccc3cc(C)c(C(=O)NC(C)C(N)=O)n3c2)s1` (centres unmarked) [Cpd 031, 2-({2-methyl-6-[(2-methyl-1,3-thiazol-5-yl)methoxy]indolizin-3-yl}formamido)propanamide], 1 to 20 µM; under `COc1ncccc1COc1ccc2cc(C)c(C(=O)NC3(CO)CCNC3=O)n2c1` (single isomer, unassigned) [Cpd 038 - En2], 1 to 20 µM. Under `Cc1cc2ccc(OCc3ccccc3F)cn2c1C(=O)NC1(CO)CCNC1=O` (single isomer, unassigned) [Cpd 007 - En1] stands under 1 µM; under `Cc1cc2ccc(OCc3cccnc3C(F)(F)F)cn2c1C(=O)NC1(CO)CCNC1=O` (single isomer, unassigned) [Cpd 039 - En1], under 1 µM. Compound `Cc1cc2ccc(OCc3scnc3C)cn2c1C(=O)NC1(CO)CCOCC1` [Cpd 001, N-[4-(hydroxymethyl)oxan-4-yl]-2-methyl-6-[(4-methyl-1,3-thiazol-5-yl)methoxy]indolizine-3-carboxamide] gave a half-maximal inhibitory concentration (IC50) of 1 to 20 µM.
